Assay results taken from ChEMBL document CHEMBL1949531, “Synthesis and antiviral activities of novel gossypol derivatives” (Bioorg Med Chem Lett, 2012).
Active and inactive are the calls of the source. The calls are words filed in the database; no cut-off is given here.

Assays:
[1] = Cytotoxicity against MDCK cells by MTT assay; type: cell-based, Canis lupus familiaris; conditions: dog
[2] = Selectivity index, ratio of CC50 for human TZM-bl cells to IC50 for HIV1 3B; type: functional
[3] = biological target: Neuraminidase (Influenza A virus) (UniProt B4URF0); assay: Inhibition of Influenza A virus neuraminidase up to 10 uM
[4] = Cytotoxicity in human TZM-bl cells by MTT assay; type: cell-based
Influenza A virus = assay: Antiviral activity against Influenza A virus (A/Vietnam/1194/2004(H5N1)) infected in MDCK cells assessed as inhibition of viral replication by plaque reduction assay; type: functional, organism-based
[5] = test system: Human immunodeficiency virus 1; assay: Antiviral activity against HIV1 3B infected human TZM-bl cells assessed as inhibition of viral replication by luciferase reporter assay; type: functional, organism-based; conditions: Human immunodeficiency virus 1, 3B, TZM-bl; read-out: IC50
[6] = Selectivity index, ratio of CC50 for MDCK cells to IC50 for Influenza A virus (A/Vietnam/1194/2004(H5N1)); type: functional
[7] = test system: Human immunodeficiency virus 1; assay: Antiviral activity against HIV1 3B infected human TZM-bl cells assessed as inhibition of viral replication at 10 uM treated immediately after infection by luciferase reporter assay; type: functional, organism-based
[8] = test system: Human immunodeficiency virus 1; assay: Antiviral activity against HIV1 3B infected human TZM-bl cells assessed as inhibition of viral replication at 10 uM treated 2 hrs after viral infection by luciferase reporter assay; type: functional, organism-based
Albumin = Albumin (Homo sapiens, UniProt P02768); assay: Binding affinity to human serum albumin by fluorescence quenching assay; type: ADME; conditions: isolated protein
[9] = test system: Human immunodeficiency virus 1; assay: Antiviral activity against HIV1 3B infected human TZM-bl cells assessed as inhibition of viral replication at 10 uM treated 8 hrs after viral infection by luciferase reporter assay; type: functional, organism-based

Sequence of Albumin (P02768 whole entry): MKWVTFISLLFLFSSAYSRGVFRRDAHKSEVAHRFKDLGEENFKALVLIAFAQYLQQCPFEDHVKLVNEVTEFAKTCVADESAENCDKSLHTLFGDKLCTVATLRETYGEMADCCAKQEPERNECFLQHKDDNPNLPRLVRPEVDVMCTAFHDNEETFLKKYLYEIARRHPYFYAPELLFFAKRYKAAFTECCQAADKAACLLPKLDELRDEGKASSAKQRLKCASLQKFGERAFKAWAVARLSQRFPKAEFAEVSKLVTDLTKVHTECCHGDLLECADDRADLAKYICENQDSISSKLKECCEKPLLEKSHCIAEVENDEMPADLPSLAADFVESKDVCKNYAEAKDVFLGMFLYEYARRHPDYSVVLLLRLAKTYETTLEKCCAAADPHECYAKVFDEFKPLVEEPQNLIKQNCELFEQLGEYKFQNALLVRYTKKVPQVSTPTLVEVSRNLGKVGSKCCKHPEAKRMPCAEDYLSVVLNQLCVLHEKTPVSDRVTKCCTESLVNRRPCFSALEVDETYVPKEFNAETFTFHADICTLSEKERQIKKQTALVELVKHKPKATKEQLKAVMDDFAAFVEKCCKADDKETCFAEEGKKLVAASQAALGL
Sequence of Neuraminidase (Influenza A virus) (B4URF0 as listed by the source): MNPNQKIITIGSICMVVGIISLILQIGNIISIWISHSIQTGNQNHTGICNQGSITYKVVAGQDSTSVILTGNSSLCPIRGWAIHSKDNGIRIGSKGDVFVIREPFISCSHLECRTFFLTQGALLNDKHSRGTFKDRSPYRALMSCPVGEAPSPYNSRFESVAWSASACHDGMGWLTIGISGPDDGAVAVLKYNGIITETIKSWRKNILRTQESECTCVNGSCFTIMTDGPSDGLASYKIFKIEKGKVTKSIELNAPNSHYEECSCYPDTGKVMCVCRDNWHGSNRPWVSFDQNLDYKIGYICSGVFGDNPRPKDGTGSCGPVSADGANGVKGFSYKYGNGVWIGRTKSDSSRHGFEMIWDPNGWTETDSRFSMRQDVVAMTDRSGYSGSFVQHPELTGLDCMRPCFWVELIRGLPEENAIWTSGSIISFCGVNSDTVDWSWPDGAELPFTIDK

| Compound | CC50 [1] [µM] | Ratio CC50/IC50 [2] | inhibition [3] | CC50 [4] [µM] | IC50 (Influenza A virus) [µM] | IC50 [5] [µM] | Ratio CC50/IC50 [6] | inhibition [7] | inhibition [8] | Ka (Albumin) | inhibition [9] |
| --- | --- | --- | --- | --- | --- | --- | --- | --- | --- | --- | --- |
| Cc1cc2c(c(O)c1-c1c(C)cc3c(c1O)/C(=C/N[C@@H](Cc1c[nH]c4ccccc14)C(=O)[O-])C(=O)C(O)=C3C(C)C)/C(=C/N[C@@H](Cc1c[nH]c3ccccc13)C(=O)[O-])C(=O)C(O)=C2C(C)C.[Na+].[Na+] | > 35.7 | 48.43 | inactive | 48 | 0.28 | 0.99 | >127.46 | Active | inactive | 9.2747 ×10⁴ L/mol |  |
| enfuvirtide |  |  |  |  |  | 0.0988 |  | Active | inactive |  |  |
| Cc1cc2c(c(O)c1-c1c(C)cc3c(c1O)/C(=C/NC(C)(C)C(=O)[O-])C(=O)C(O)=C3C(C)C)/C(=C/NC(C)(C)C(=O)[O-])C(=O)C(O)=C2C(C)C.[Na+].[Na+] | > 45.5 | 71.19 |  | 99 | 1.05 | 1.39 | >43.37 | Active | inactive | 1.9125 ×10⁵ L/mol |  |
| Cc1cc2c(c(O)c1-c1c(C)cc3c(c1O)/C(=C/NC(C(=O)[O-])c1ccc(Cl)cc1)C(=O)C(O)=C3C(C)C)/C(=C/NC(C(=O)[O-])c1ccc(Cl)cc1)C(=O)C(O)=C2C(C)C.[Na+].[Na+] (centres undefined) | > 37.2 | 17.12 |  | 21.9 | 21.5 | 1.28 | >1.73 |  |  | 1.2868 ×10⁴ L/mol |  |
| Cc1cc2c(C(C)C)c(O)c(O)c(/C=N/[C@@H](Cc3ccccc3)C(=O)[O-])c2c(O)c1-c1c(C)cc2c(C(C)C)c(O)c(O)c(/C=N/[C@@H](Cc3ccccc3)C(=O)[O-])c2c1O.[Na+].[Na+] | > 38.9 | 32.27 |  | 57.1 | 7.79 | 1.77 | >5 |  |  | 1.2835 ×10⁵ L/mol |  |
| Cc1cc2c(c(O)c1-c1c(C)cc3c(c1O)/C(=C/N[C@@H](C)C(=O)[O-])C(=O)C(O)=C3C(C)C)/C(=C/N[C@@H](C)C(=O)[O-])C(=O)C(O)=C2C(C)C.[Na+].[Na+] | > 47.3 | 46.09 |  | 56.2 | 0.87 | 1.22 | >54.41 | Active | inactive | 1.0392 ×10⁵ L/mol |  |
| Cc1cc2c(c(O)c1-c1c(C)cc3c(c1O)/C(=C/NC(C(=O)[O-])c1ccc(O)cc1)C(=O)C(O)=C3C(C)C)/C(=C/NC(C(=O)[O-])c1ccc(O)cc1)C(=O)C(O)=C2C(C)C.[Na+].[Na+] (centres undefined) | > 38.8 | 16.54 |  | 22.2 | 7.76 | 1.34 | >5 |  |  | 2.1607 ×10⁴ L/mol |  |
| Cc1cc2c(c(O)c1-c1c(C)cc3c(c1O)/C(=C/NCCCCCCCC(=O)[O-])C(=O)C(O)=C3C(C)C)/C(=C/NCCCCCCCC(=O)[O-])C(=O)C(O)=C2C(C)C.[Na+].[Na+] | > 39.5 | 10.44 |  | 29.6 | 39.5 | 2.84 | >1 |  |  | 2.8629 ×10⁴ L/mol |  |
| Cc1cc2c(c(O)c1-c1c(C)cc3c(c1O)/C(=C/N[C@@H](Cc1ccc(O)cc1)C(=O)[O-])C(=O)C(O)=C3C(C)C)/C(=C/N[C@@H](Cc1ccc(O)cc1)C(=O)[O-])C(=O)C(O)=C2C(C)C.[Na+].[Na+] | > 37.5 | 33.81 |  | 54.8 | 37.5 | 1.62 | >1 |  |  | 7.5353 ×10⁴ L/mol |  |
| Cc1cc2c(c(O)c1-c1c(C)cc3c(c1O)/C(=C/NCCCCC(=O)[O-])C(=O)C(O)=C3C(C)C)/C(=C/NCCCCC(=O)[O-])C(=O)C(O)=C2C(C)C.[Na+].[Na+] | > 43.8 | 19.25 |  | 32.9 | 19.5 | 1.71 | >2.25 |  |  | 2.4288 ×10⁴ L/mol |  |
| Cc1cc2c(c(O)c1-c1c(C)cc3c(c1O)/C(=C/NCCCCCC(=O)[O-])C(=O)C(O)=C3C(C)C)/C(=C/NCCCCCC(=O)[O-])C(=O)C(O)=C2C(C)C.[Na+].[Na+] | > 42.3 | 15.19 |  | 31.8 | 42.3 | 2.09 | >1 |  |  | 3.2203 ×10⁴ L/mol |  |
| Cc1cc2c(c(O)c1-c1c(C)cc3c(c1O)/C(=C/N[C@H](C(=O)[O-])C(C)C)C(=O)C(O)=C3C(C)C)/C(=C/N[C@H](C(=O)[O-])C(C)C)C(=O)C(O)=C2C(C)C.[Na+].[Na+] | > 43.9 | 61.68 |  | 70.3 | 1.78 | 1.14 | >24.64 | Active | inactive | 2.114 ×10⁵ L/mol |  |
| CC[C@H](C)[C@H](N/C=C1\C(=O)C(O)=C(C(C)C)c2cc(C)c(-c3c(C)cc4c(c3O)/C(=C/N[C@H](C(=O)[O-])[C@@H](C)CC)C(=O)C(O)=C4C(C)C)c(O)c21)C(=O)[O-].[Na+].[Na+] | > 42.3 | 57.57 | inactive | 64.5 | 0.34 | 1.12 | >124.41 | Active | inactive | 5.3223 ×10⁴ L/mol |  |
| Cc1cc2c(c(O)c1-c1c(C)cc3c(c1O)/C(=C/N[C@@H](CO)C(=O)[O-])C(=O)C(O)=C3C(C)C)/C(=C/N[C@@H](CO)C(=O)[O-])C(=O)C(O)=C2C(C)C.[Na+].[Na+] | > 45.3 | 23.72 |  | 68.3 | 45.3 | 2.88 | >1 |  |  | 5.7756 ×10⁴ L/mol |  |
| Cc1cn([C@H]2C[C@H](N=[N+]=[N-])[C@@H](CO)O2)c(=O)[nH]c1=O [ZIDOVUDINE] |  |  |  |  |  | 0.0028 |  |  |  |  | Active |
| Cc1cc2c(c(O)c1-c1c(C)cc3c(c1O)/C(=C/N[C@@H](CC(C)C)C(=O)[O-])C(=O)C(O)=C3C(C)C)/C(=C/N[C@@H](CC(C)C)C(=O)[O-])C(=O)C(O)=C2C(C)C.[Na+].[Na+] | > 47.4 | 31.26 |  | 42.8 | 8.46 | 1.37 | >5.6 |  |  | 1.3483 ×10⁴ L/mol |  |
| Cc1cc2c(c(O)c1-c1c(C)cc3c(c1O)/C(=C/N[C@@H](Cc1c[nH]cn1)C(=O)[O-])C(=O)C(O)=C3C(C)C)/C(=C/N[C@@H](Cc1c[nH]cn1)C(=O)[O-])C(=O)C(O)=C2C(C)C.[Na+].[Na+] | > 41.2 | 32.38 |  | 51.2 | 41.2 | 1.58 | >1 |  |  | 6.7205 ×10⁴ L/mol |  |
| Cc1cc2c(c(O)c1-c1c(C)cc3c(c1O)/C(=C/NCCS(=O)(=O)[O-])C(=O)C(O)=C3C(C)C)/C(=C/NCCS(=O)(=O)[O-])C(=O)C(O)=C2C(C)C.[Na+].[Na+] [MEGOSIN] | > 43 | 43.03 |  | 53.4 | 8.59 | 1.24 | >5 |  |  | 1.7559 ×10⁴ L/mol |  |
